Legend:
Assay type in all cases: in vivo
[1] = test system: giant foxtail (Setaria faberii); experiment: Test A preemergence
Method in brief: (§1)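 Each rating is a visual injury score from 0 to 100 given about 10 d after treatment, judged against untreated controls kept alongside in the greenhouse. In loam soil–sand blend, seeds got a preemergence directed soil spray, while postemergence plants were 2 to 10 cm tall at spraying.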

[2] = test system: pigweed (Amaranthus retroflexus); experiment: Test A preemergence
Kochia (Kochia scoparia) [3] = experiment: Test A preemergence
Method in brief: as §1

[4] = test system: ryegrass, Italian (Italian ryegrass, Lolium multiflorum); experiment: Test A preemergence
Method in brief: as §1

[5] = test system: barnyardgrass (Echinochloa crus-galli); experiment: Test A preemergence
Method in brief: as §1

[6] = test system: ragweed (common ragweed, Ambrosia elatior); experiment: Test A preemergence
Method in brief: as §1

rice (Oryza sativa) = experiment: Test C flooded paddy test; settings: Flood; for Plant response rating, Rice: 31 g ai/ha, scale 0 to 100 (0 no effect, 100 complete control), 13 to 15 d; for Plant response rating (scale of 0 to 100), Rice: 0 is no effect, 100 is complete control
Method in brief: (§2)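 Visual 0–100 injury rating versus controls (0 = no effect, 100 = complete control) at 13 to 15 d. 2-leaf-stage plants; pots flooded 3 cm over soil surface, test compound added to paddy water; greenhouse.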

[7] = test system: ducksalad (Heteranthera limosa); experiment: Test C flooded paddy test; settings: Flood; for Plant response rating, Ducksalad: 31 g ai/ha, scale 0 to 100 (0 no effect, 100 complete control), 13 to 15 d; for Plant response rating (scale of 0 to 100), Ducksalad: 0 is no effect, 100 is complete control
Method in brief: as §2

[8] = test system: barnyardgrass (Echinochloa crus-galli); experiment: Test C flooded paddy test; settings: Flood; for Plant response rating, Barnyardgrass: 31 g ai/ha, scale 0 to 100 (0 no effect, 100 complete control), 13 to 15 d; for Plant response rating (scale of 0 to 100), Barnyardgrass: 0 is no effect, 100 is complete control
Method in brief: as §2

[9] = test system: sedge, umbrella (small-flower umbrella sedge, Cyperus difformis); experiment: Test C flooded paddy test; settings: Flood; for Plant response rating, Sedge, Umbrella: 31 g ai/ha, scale 0 to 100 (0 no effect, 100 complete control), 13 to 15 d; for Plant response rating (scale of 0 to 100), Sedge, Umbrella: 0 is no effect, 100 is complete control
Method in brief: as §2

rice (Oryra sativa) = experiment: Test B flooded paddy test; settings: Flood, 250 g ai/ha; 0 to 100 scale where 0 is no effect and 100 is complete control; 13 to 15 d
Method in brief: (§3)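 Compound goes directly into floodwater once pots are flooded 3 cm above soil, targeting plants at two leaves; the water depth is then held for the test duration. Plants sit 13–15 d in a greenhouse and are rated visually, 100 denoting complete control.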

[10] = test system: ducksalad (Heteranthera limosa); experiment: Test B flooded paddy test; settings: Flood, 250 g ai/ha; 0 to 100 scale where 0 is no effect and 100 is complete control; 13 to 15 d
Method in brief: as §3

[11] = test system: barnyardgrass (Echinochloa crus-galli); experiment: Test B flooded paddy test; settings: Flood, 250 g ai/ha; 0 to 100 scale where 0 is no effect and 100 is complete control; 13 to 15 d
Method in brief: as §3

[12] = test system: sedge, umbrella (small-flower umbrella sedge, Cyperus difformis); experiment: Test B flooded paddy test; settings: Flood, 250 g ai/ha; 0 to 100 scale where 0 is no effect and 100 is complete control; 13 to 15 d
Method in brief: as §3

[13] = test system: giant foxtail (Setaria faberii); experiment: Test A postemergence; settings: postemergence, 0 to 100 scale (0 no effect, 100 complete control)
Method in brief: as §1

[14] = test system: pigweed (Amaranthus retroflexus); experiment: Test A postemergence; settings: postemergence, 0 to 100 scale (0 no effect, 100 complete control)
Method in brief: as §1

corn (Zea mays) = experiment: Test A postemergence
Method in brief: as §1

Kochia (Kochia scoparia) [15] = experiment: Test A postemergence; settings: postemergence, 0 to 100 scale (0 no effect, 100 complete control)
Method in brief: as §1

[16] = test system: Galium (catchweed bedstraw, Galium aparine); experiment: Test A postemergence; settings: postemergence, 0 to 100 scale (0 no effect, 100 complete control)
Method in brief: as §1

[17] = test system: blackgrass (Alopecurus myosuroides); experiment: Test A postemergence
Method in brief: as §1

[18] = test system: ryegrass, Italian (Italian ryegrass, Lolium multiflorum); experiment: Test A postemergence; settings: postemergence, 0 to 100 scale (0 no effect, 100 complete control)
Method in brief: as §1

[19] = test system: wheat (Triticum aestivum); experiment: Test A postemergence; settings: postemergence, 0 to 100 scale (0 no effect, 100 complete control)
Method in brief: as §1

[20] = test system: barnyardgrass (Echinochloa crus-galli); experiment: Test A postemergence
Method in brief: as §1

[21] = test system: ragweed (common ragweed, Ambrosia elatior); experiment: Test A postemergence; settings: postemergence, 0 to 100 scale (0 no effect, 100 complete control)
Method in brief: as §1

[22] = 125 g ai/ha, Preemergence, visual injury after approximately 10 d, 0 to 100 scale where 0 is no effect and 100 is complete control
[23] = 500 g ai/ha, preemergence, 0 to 100 scale, 0 = no effect, 100 = complete control
[24] = 125 g ai/ha, visual rating after approx. 10 d
[25] = 500 g ai/ha, visual injury, approx. 10 d
[26] = 125 g ai/ha, postemergence, visual rating after approx. 10 d, 0 to 100 scale (0 no effect, 100 complete control)
[27] = Postemergence, 500 g ai/ha, 0 to 100 scale where 0 is no effect and 100 is complete control
[28] = 500 g ai/ha, postemergence, visual injury, 0 to 100 scale (0 no effect, 100 complete control), approx. 10 d

With `CN1CC(c2cccc(C(F)(F)F)c2)C(C(=O)Nc2ccccc2C(F)(F)F)C1=O` (centres unmarked) [Compound 638] the “Plant response rating, Foxtail, Giant” value [1, 22] was 90, the “Plant response rating, Foxtail, Giant” value [1, 23] was 100 and the “Plant response rating, Pigweed” value [2, 22] was 40. For the same compound, the “Plant response rating, Pigweed” value [2, 23] was 60, the “Plant response rating, Kochia” value (Kochia (Kochia scoparia) [3]; [22]) was 0 and the “Plant response rating, Kochia” value (Kochia (Kochia scoparia) [3]; [23]) was 20. For the same compound, the “Plant response rating, Ryegrass, Italian” value [4, 22] was 30, the “Plant response rating, Ryegrass, Italian” value [4, 23] was 90 and the “Plant response rating, Barnyardgrass” value [5, 22] was 90. For the same compound, the “Plant response rating, Barnyardgrass” value [5, 23] was 90, the “Plant response rating, Ragweed” value [6, 22] was 30 and the “Plant response rating, Ragweed” value [6, 23] was 60. The “Plant response rating, Rice” value (rice (Oryza sativa)) was 20, the “Plant response rating (scale of 0 to 100), Rice” value (rice (Oryza sativa); 62 g ai/ha) was 25 and the “Plant response rating (scale of 0 to 100), Rice” value (rice (Oryza sativa); 125 g ai/ha) was 25. For the same compound, the “Plant response rating (scale of 0 to 100), Rice” value (rice (Oryza sativa); 250 g ai/ha) was 25, the “Plant response rating, Ducksalad” value [7] was 0 and the “Plant response rating (scale of 0 to 100), Ducksalad” value ([7]; 62 g ai/ha) was 40. For the same compound, the “Plant response rating (scale of 0 to 100), Ducksalad” value ([7]; 125 g ai/ha) was 60, the “Plant response rating (scale of 0 to 100), Ducksalad” value ([7]; 250 g ai/ha) was 75 and the “Plant response rating, Barnyardgrass” value [8] was 45. The “Plant response rating (scale of 0 to 100), Barnyardgrass” value ([8]; 62 g ai/ha) was 55, the “Plant response rating (scale of 0 to 100), Barnyardgrass” value ([8]; 125 g ai/ha) was 60 and the “Plant response rating (scale of 0 to 100), Barnyardgrass” value ([8]; 250 g ai/ha) was 75. The “Plant response rating, Sedge, Umbrella” value [9] was 0, the “Plant response rating (scale of 0 to 100), Sedge, Umbrella” value ([9]; 62 g ai/ha) was 0 and the “Plant response rating (scale of 0 to 100), Sedge, Umbrella” value ([9]; 125 g ai/ha) was 0. For the same compound, the “Plant response rating (scale of 0 to 100), Sedge, Umbrella” value ([9]; 250 g ai/ha) was 0, the “Plant response rating, Rice” value (rice (Oryra sativa)) was 10 and the “Plant response rating, Ducksalad” value [10] was 100. For the same compound, the “Plant response rating, Barnyardgrass” value [11] was 85, the “Plant response rating, Sedge, Umbrella” value [12] was 0 and the “Plant response rating, Foxtail, Giant” value [13, 24] was 90. The “Plant response rating, Foxtail, Giant” value [13, 25] was 90, the “Plant response rating, Pigweed” value [14, 24] was 20 and the “Plant response rating, Pigweed” value [14, 25] was 50. The “Plant response rating, Corn” value (corn (Zea mays); [26]) was 70, the “Plant response rating, Corn” value (corn (Zea mays); [27]) was 80 and the “Plant response rating, Kochia” value (Kochia (Kochia scoparia) [15]; [24]) was 20. The “Plant response rating, Kochia” value (Kochia (Kochia scoparia) [15]; [25]) was 40, the “Plant response rating, Galium” value [16, 24] was 60 and the “Plant response rating, Galium” value [16, 25] was 60. The “Plant response rating, Blackgrass” value [17, 26] was 50, the “Plant response rating, Blackgrass” value [17, 27] was 70 and the “Plant response rating, Ryegrass, Italian” value [18, 24] was 30. The “Plant response rating, Ryegrass, Italian” value [18, 25] was 40, the “Plant response rating, Wheat” value [19, 24] was 60 and the “Plant response rating, Wheat” value [19, 25] was 70. For the same compound, the “Plant response rating, Barnyardgrass” value [20, 26] was 90, the “Plant response rating, Barnyardgrass” value [20, 27] was 90 and the “Plant response rating, Ragweed” value [21, 24] was 0. The “Plant response rating, Ragweed” value [21, 25] was 0.

In the case of `CN1CC(c2cc(F)cc(F)c2)C(C(=O)Nc2ccccc2F)C1=O` (centres unmarked) [Compound 643], the “Plant response rating, Foxtail, Giant” value [1, 22] is reported as 100, the “Plant response rating, Foxtail, Giant” value [1, 23] is reported as 100 and the “Plant response rating, Pigweed” value [2, 22] is reported as 0. The “Plant response rating, Pigweed” value [2, 23] was 20, the “Plant response rating, Kochia” value (Kochia (Kochia scoparia) [3]; [22]) was 0 and the “Plant response rating, Kochia” value (Kochia (Kochia scoparia) [3]; [23]) was 40. For the same compound, the “Plant response rating, Ryegrass, Italian” value [4, 22] was 20, the “Plant response rating, Ryegrass, Italian” value [4, 23] was 90 and the “Plant response rating, Barnyardgrass” value [5, 22] was 90. The “Plant response rating, Barnyardgrass” value [5, 23] was 90, the “Plant response rating, Ragweed” value [6, 22] was 0 and the “Plant response rating, Ragweed” value [6, 23] was 20. The “Plant response rating, Rice” value (rice (Oryza sativa)) was 0, the “Plant response rating (scale of 0 to 100), Rice” value (rice (Oryza sativa); 62 g ai/ha) was 0 and the “Plant response rating (scale of 0 to 100), Rice” value (rice (Oryza sativa); 125 g ai/ha) was 0. The “Plant response rating (scale of 0 to 100), Rice” value (rice (Oryza sativa); 250 g ai/ha) was 10, the “Plant response rating, Ducksalad” value [7] was 20 and the “Plant response rating (scale of 0 to 100), Ducksalad” value ([7]; 62 g ai/ha) was 50. For the same compound, the “Plant response rating (scale of 0 to 100), Ducksalad” value ([7]; 125 g ai/ha) was 75, the “Plant response rating (scale of 0 to 100), Ducksalad” value ([7]; 250 g ai/ha) was 100 and the “Plant response rating, Barnyardgrass” value [8] was 0. For the same compound, the “Plant response rating (scale of 0 to 100), Barnyardgrass” value ([8]; 62 g ai/ha) was 35, the “Plant response rating (scale of 0 to 100), Barnyardgrass” value ([8]; 125 g ai/ha) was 65 and the “Plant response rating (scale of 0 to 100), Barnyardgrass” value ([8]; 250 g ai/ha) was 90. For the same compound, the “Plant response rating, Sedge, Umbrella” value [9] was 0, the “Plant response rating (scale of 0 to 100), Sedge, Umbrella” value ([9]; 62 g ai/ha) was 0 and the “Plant response rating (scale of 0 to 100), Sedge, Umbrella” value ([9]; 125 g ai/ha) was 0. For the same compound, the “Plant response rating (scale of 0 to 100), Sedge, Umbrella” value ([9]; 250 g ai/ha) was 0, the “Plant response rating, Rice” value (rice (Oryra sativa)) was 15 and the “Plant response rating, Ducksalad” value [10] was 100. For the same compound, the “Plant response rating, Barnyardgrass” value [11] was 80, the “Plant response rating, Sedge, Umbrella” value [12] was 0 and the “Plant response rating, Foxtail, Giant” value [13, 24] was 90. For the same compound, the “Plant response rating, Foxtail, Giant” value [13, 25] was 90, the “Plant response rating, Pigweed” value [14, 24] was 0 and the “Plant response rating, Pigweed” value [14, 25] was 0. For the same compound, the “Plant response rating, Corn” value (corn (Zea mays); [26]) was 0, the “Plant response rating, Corn” value (corn (Zea mays); [28]) was 70 and the “Plant response rating, Kochia” value (Kochia (Kochia scoparia) [15]; [24]) was 0. The “Plant response rating, Kochia” value (Kochia (Kochia scoparia) [15]; [25]) was 20, the “Plant response rating, Galium” value [16, 24] was 0 and the “Plant response rating, Galium” value [16, 25] was 50. The “Plant response rating, Blackgrass” value [17, 26] was 50, the “Plant response rating, Blackgrass” value [17, 28] was 60 and the “Plant response rating, Ryegrass, Italian” value [18, 24] was 30. For the same compound, the “Plant response rating, Ryegrass, Italian” value [18, 25] was 30, the “Plant response rating, Wheat” value [19, 24] was 0 and the “Plant response rating, Wheat” value [19, 25] was 50. For the same compound, the “Plant response rating, Barnyardgrass” value [20, 26] was 90, the “Plant response rating, Barnyardgrass” value [20, 28] was 90 and the “Plant response rating, Ragweed” value [21, 24] was 0. For the same compound, the “Plant response rating, Ragweed” value [21, 25] was 30.
